Measurements taken from the supplement of paper PMC5908809.

What was measured:
[1] = system: normal NK cells expanded with K562-aAPC; assay: percent inhibition of viability; higher = more inhibition; details: 72 h, IL-2 2.5 ng/mL
Procedure: (§1)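 Drug sensitivity and resistance testing on K562-aAPC-expanded normal NK cells: 5 concentrations (10-fold steps over a 10,000-fold range), 72 h at 37 °C, viability by CellTiter-Glo normalised to DMSO and benzethonium chloride controls; DSS from the fitted curve.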

[2] = system: DERL-7 (IL-2 2.5 ng/mL); assay: as above; details: 72 h
[3] = system: IMC-1 (IL-2 20 ng/mL); assay: as above; details: 72 h
[4] = system: KAI3 (IL-2 2.5 ng/mL); assay: as above; details: 72 h
[5] = system: KHYG-1 (IL-2 2.5 ng/mL); assay: as above; details: 72 h
[6] = system: NK-92 (IL-2 2.5 ng/mL); assay: as above; details: 72 h
[7] = system: NK-YS (IL-2 2.5 ng/mL); assay: as above; details: 72 h
[8] = system: NKL (IL-2 2.5 ng/mL); assay: as above; details: 72 h
[9] = system: SNK-6 (IL-2 2.5 ng/mL); assay: as above; details: 72 h
[10] = system: YT (IL-2 2.5 ng/mL); assay: as above; details: 72 h
[11] = system: normal primary NK cells, pool 1 (3 donors) (IL-2 2.5 ng/mL); assay: as above; details: 72 h
[12] = system: normal primary NK cells, pool 1 (3 donors), resting (IL-2 0 ng/mL); assay: as above; details: 72 h
[13] = system: normal primary NK cells, pool 2 (3 donors) (IL-2 2.5 ng/mL); assay: as above; details: 72 h
[14] = system: normal primary NK cells, pool 3 (3 donors) (IL-2 2.5 ng/mL); assay: as above; details: 72 h
[15] = system: normal NK cells expanded with K562-aAPC; assay: drug sensitivity score (DSS) (DSS units); higher = more sensitive; extreme values may be limits of the assay; details: 72 h; IL-2 2.5 ng/mL
Procedure: as §1

[16] = system: DERL-7 (IL-2 2.5 ng/mL); assay: as above; details: 72 h
[17] = system: IMC-1 (IL-2 20 ng/mL); assay: as above; details: 72 h
[18] = system: KAI3 (IL-2 2.5 ng/mL); assay: as above; details: 72 h
[19] = system: KHYG-1 (IL-2 2.5 ng/mL); assay: as above; details: 72 h
[20] = system: NK-92 (IL-2 2.5 ng/mL); assay: as above; details: 72 h
[21] = system: NK-YS (IL-2 2.5 ng/mL); assay: as above; details: 72 h
[22] = system: NKL (IL-2 2.5 ng/mL); assay: as above; details: 72 h
[23] = system: SNK-6 (IL-2 2.5 ng/mL); assay: as above; details: 72 h
[24] = system: YT (IL-2 2.5 ng/mL); assay: as above; details: 72 h
[25] = system: normal primary NK cells, pool 1 (3 donors) (IL-2 2.5 ng/mL); assay: as above; details: 72 h
[26] = system: normal primary NK cells, pool 1 (3 donors), resting (IL-2 0 ng/mL); assay: as above; details: 72 h
[27] = system: normal primary NK cells, pool 2 (3 donors) (IL-2 2.5 ng/mL); assay: as above; details: 72 h
[28] = system: normal primary NK cells, pool 3 (3 donors) (IL-2 2.5 ng/mL); assay: as above; details: 72 h

CC[C@H](NC(=O)[C@H](C)NC)C(=O)N1C[C@@H](O)C[C@H]1Cc1c(-c2[nH]c3cc(F)ccc3c2C[C@@H]2C[C@H](O)CN2C(=O)[C@H](CC)NC(=O)[C@H](C)NC)[nH]c2cc(F)ccc12 [Birinapant] (max concentration tested 1000 nM)
percent inhibition of viability [%]
Details | 0.1 nM | 1 nM | 10 nM | 100 nM | 1000 nM
[1] | -2.92 | -0.28 | 2.8 | 10.2 | 38.9
[2] | 7.8 | 5.54 | 23.2 | 43.1 | 46.6
[3] | -3.47 | 1.41 | -0.22 | 1.34 | 45.6
[4] | 1.71 | -5.41 | -0.72 | 9.21 | 15.7
[5] | -2.97 | -5.19 | -7.39 | -1.77 | 17.7
[6] | -4.58 | -12.3 | 5.84 | 11.1 | 31
[7] | -2.88 | -9.14 | -8.38 | -5.45 | -8.45
[8] | 5.63 | 0.8 | 3.21 | 19.2 | 32.2
[9] | -1.62 | -1.64 | -7.31 | -10.8 | -16.1
[10] | 1.52 | -1.94 | 2.55 | 4.56 | 2.39
[11] | -9.47 | -11.8 | 3.46 | 0.49 | 69.2
[12] | -23.1 | -28.9 | -10.4 | -2.86 | 73.8
[13] | -6.05 | -7.14 | -11.2 | 2.7 | 53.1
[14] | -4.73 | -7.57 | -8.06 | -3.61 | 38.2

Details | drug sensitivity score
[15] | 3.47
[16] | 10.5
[17] | 2.52
[18] | 1
[19] | 0.34
[20] | 2.35
[21] | 0
[22] | 3.5
[23] | 0
[24] | 0
[25] | 3.88
[26] | 3.83
[27] | 3.2
[28] | 1.6

O=C(Nc1cccc(Nc2ncc(Br)c(NCCc3cnc[nH]3)n2)c1)N1CCCC1 [BX-912] (max concentration tested 10000 nM)
percent inhibition of viability [%]
Details | 1 nM | 10 nM | 100 nM | 1000 nM | 10000 nM
[1] | 6.59 | 2.98 | 3.43 | 27.4 | 91.5
[2] | 2.87 | -0.14 | -7.54 | 46.5 | 100
[3] | -2.34 | -6.68 | 1.1 | 67.4 | 100
[4] | 4.7 | 2.59 | 15.4 | 62.1 | 91.9
[5] | 2.7 | 1.66 | 7.53 | 73.7 | 99.5
[6] | -9.43 | -1.33 | -2.11 | 29.9 | 73.8
[7] | -1.46 | -2.48 | 3.48 | 12.5 | 71
[8] | -14.9 | -11.4 | 13.4 | 37.6 | 82.2
[9] | -3.93 | -10.2 | -7.12 | 74.4 | 84.7
[10] | 5.65 | 4 | 10.3 | 27.9 | 94
[11] | -2.38 | 3.58 | -5.48 | 24.1 | 67.8
[12] | -5.56 | -0.72 | -0.67 | -4.14 | 48.2
[13] | -15 | -8.59 | -3.23 | 28.3 | 70.2
[14] | -2.12 | 3.72 | -4.74 | 17.4 | 59.6

Details | drug sensitivity score
[15] | 9.08
[16] | 11.4
[17] | 13.3
[18] | 13.7
[19] | 14.9
[20] | 8.1
[21] | 5.99
[22] | 9.05
[23] | 13.4
[24] | 8.82
[25] | 7.12
[26] | 2.21
[27] | 7.7
[28] | 5.85

O=C(O)CCCCC(CCSCc1ccccc1)SCc1ccccc1 (stereo not given) [CPI-613] (max concentration tested 10000 nM)
percent inhibition of viability [%]
Details | 1 nM | 10 nM | 100 nM | 1000 nM | 10000 nM
[1] | -7.1 | -6.01 | -4.94 | -0.06 | 8.33
[2] | 0.05 | -0.43 | -0.74 | -7.69 | 0.16
[3] | -2.98 | -1.62 | -2.71 | -2.84 | 9.03
[4] | 2.88 | -5.51 | 1.38 | 3.07 | 13.6
[5] | -0.71 | -6.53 | -1.09 | 2.22 | 14.3
[6] | -12.9 | -8.45 | -13 | 17.1 | 13.7
[7] | -0.06 | -3.64 | -3.63 | 4.79 | 12.5
[8] | -9.11 | -4.72 | -5.85 | 9.97 | -1.95
[9] | 2.68 | 9.26 | 7.02 | 3.27 | 15.4
[10] | -4.82 | -6.21 | -4.86 | 4.79 | 13.6
[11] | -0.75 | 13.6 | 2.91 | 3.14 | 0.88
[12] | -1.85 | 9.03 | 13.2 | 15.7 | 14.9
[13] | -4.63 | 4.64 | 5.89 | 2.06 | 9.6
[14] | -7.27 | -0.78 | 1.21 | 3.31 | 2.34

Details | drug sensitivity score
[15] | 0
[16] | 0
[17] | 0
[18] | 0.36
[19] | 0.38
[20] | 1.68
[21] | 0.31
[22] | 0
[23] | 0.07
[24] | 0.45
[25] | 0
[26] | 3.6
[27] | 0
[28] | 0

CC(C)(C)c1cnc(CSc2cnc(NC(=O)C3CCNCC3)s2)o1 [SNS-032] (max concentration tested 10000 nM)
percent inhibition of viability [%]
Details | 1 nM | 10 nM | 100 nM | 1000 nM | 10000 nM
[1] | 2.77 | 0 | 29.2 | 100 | 100
[2] | 0.08 | -3.51 | 77.5 | 100 | 100
[3] | -4.98 | -6.51 | 97.6 | 99.1 | 98.8
[4] | -8.15 | 9.55 | 57.9 | 103 | 98.3
[5] | -2.99 | -6.55 | 4.29 | 102 | 102
[6] | -11.5 | -4.07 | 11.5 | 98.8 | 101
[7] | -1.14 | 9.07 | 83.6 | 100 | 99.8
[8] | -10.4 | 11.6 | 97.8 | 106 | 103
[9] | 17.9 | 2.01 | 31.7 | 54 | 38
[10] | -0.35 | 4.14 | 57.7 | 103 | 101
[11] | -14.2 | -9.83 | 88.9 | 98.2 | 98.8
[12] | -12.8 | -19.9 | 79.9 | 91.5 | 93.9
[13] | -21 | -13.7 | 80.7 | 94.5 | 96.5
[14] | -17.4 | -11.5 | 48.5 | 98.1 | 99

Details | drug sensitivity score
[15] | 22.3
[16] | 26.9
[17] | 29.5
[18] | 25.1
[19] | 18.7
[20] | 19.8
[21] | 29
[22] | 32.3
[23] | 13.4
[24] | 24.9
[25] | 28.1
[26] | 26.1
[27] | 26.6
[28] | 23.9

CCn1cc(-c2ccnc3[nH]c(-c4cccc(CN(C)C)c4)cc23)c(-c2ccc(NC(=O)N(C)C)cc2)n1 (max concentration tested 1000 nM)
percent inhibition of viability [%]
Details | 0.1 nM | 1 nM | 10 nM | 100 nM | 1000 nM
[1] | -5.72 | -6.24 | -0.83 | 49.9 | 32
[2] | -1.42 | -13.7 | 13.4 | 68.1 | 56.9
[3] | -3.05 | 2.14 | 9.34 | 18.7 | 69
[4] | 0.71 | -0.96 | 15.3 | 16.4 | 34.5
[5] | -0.5 | 3.29 | 9.71 | 39.2 | 54
[6] | -10.8 | -15.2 | -2.48 | 28.9 | 35.5
[7] | -3.92 | -3.4 | 26.2 | 69.9 | 66.9
[8] | -15 | -6.31 | 2.14 | 11.6 | 43.2
[9] | 20.9 | 18.6 | 35 | 71.1 | 65.4
[10] | 2.03 | 4.54 | 11.2 | 19.1 | 39.5
[11] | 6.54 | -2.75 | 2.78 | -10.4 | -5.89
[12] | 10.8 | -0.01 | -0.34 | -11.5 | 8.25
[13] | -0.19 | 2.58 | 11.4 | 2.17 | 5.89
[14] | -9.36 | -0.39 | 7.48 | -0.31 | 7.08

Details | drug sensitivity score
[15] | 8.97
[16] | 14.7
[17] | 6.3
[18] | 4.01
[19] | 8.32
[20] | 5.05
[21] | 16.5
[22] | 3.99
[23] | 18.6
[24] | 4.47
[25] | 0
[26] | 0
[27] | 0
[28] | 0
